US20240246979A1, “cGAS INHIBITORS” (Eli Lilly and Company, priority 2022, published 2024)

Experiments:
[1] = target: T1, cGAS (Homo sapiens, UniProt Q8N884); test: Cellular assay to measure cGAS activity (IFNb AlphaLISA in THP1 cells stimulated by RDG-Adenovirus-GFP); type: cell-based; design: host or cells: THP1 cells differentiated with PMA and stimulated with RDG-Adenovirus-GFP; settings: PMA-differentiated THP1 cells, RDG-Adenovirus-GFP at 1000 MOI; inhibition of IFNb production as marker for cGAS activity
T1 sequence (Q8N884 whole entry): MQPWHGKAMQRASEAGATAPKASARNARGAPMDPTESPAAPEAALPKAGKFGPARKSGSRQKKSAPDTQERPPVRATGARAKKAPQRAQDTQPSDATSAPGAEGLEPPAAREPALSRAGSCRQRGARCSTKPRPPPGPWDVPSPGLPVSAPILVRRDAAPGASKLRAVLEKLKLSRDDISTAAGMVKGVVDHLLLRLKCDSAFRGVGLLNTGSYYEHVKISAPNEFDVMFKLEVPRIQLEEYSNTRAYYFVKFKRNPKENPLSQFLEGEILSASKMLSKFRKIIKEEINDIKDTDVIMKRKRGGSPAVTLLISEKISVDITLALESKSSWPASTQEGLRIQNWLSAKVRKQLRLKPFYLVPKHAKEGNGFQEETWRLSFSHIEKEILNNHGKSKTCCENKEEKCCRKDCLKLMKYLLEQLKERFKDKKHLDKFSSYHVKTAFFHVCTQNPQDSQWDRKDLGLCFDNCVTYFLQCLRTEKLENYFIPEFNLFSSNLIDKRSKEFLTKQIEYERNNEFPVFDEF
In short: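 PMA-differentiated THP1 cells were infected with RDG-Adenovirus-GFP at 1000 MOI for 4 h, then exposed overnight to test compounds. IFNb in the supernatant was quantified by AlphaLISA as a cGAS activity marker, and IC50 was fitted with a 4-parameter logistic equation.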

[2] = target: T1, cGAS; test: In vitro inhibition assay of cGAS activity (cGAMP production, RapidFire mass spectrometry); type: biochemical; design: Insert cDNA encoding full-length of human cGAS; His6; made in house; host or cells: E. coli BL21(DE3); settings: 10 nM recombinant human cGAS, 60 nM 75-bp dsDNA, 50 μM ATP, 50 μM GTP, 3 hrs
In short: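 His6-tagged full-length human cGAS (10 nM, E. coli-expressed) was incubated for 3 hrs at ambient temperature with 60 nM 75-bp dsDNA, 50 μM ATP and 50 μM GTP in Tris pH 7.5/MgCl2 buffer with compound dilutions. cGAMP was quantified by RapidFire mass spectrometry against an internal standard, and IC50 was obtained by 4-parameter logistic fit.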

Cn1ncc(-c2cc(Cl)c(Cl)c3[nH]c4c(c23)CC(=O)NCC4CCNCC(F)(F)F)n1 (centres unmarked) [Example 112, 7,8-Dichloro-10-(2-methyl-2H-1,2,3-triazol-4-yl)-5-(2-((2,2,2-trifluoroethyl)amino)ethyl)-3,4,5,6-tetrahydroazepino[4,5-b]indol-2(1H)-one]
IC50 [1]: 2.6 µM
IC50 [2]: 0.0515 µM

N#CCc1cc(Cl)c(Cl)c2[nH]c3c(c12)CC(=O)NCC3CCO (centres unmarked) [Example 113, 2-(7,8-Dichloro-5-(2-hydroxyethyl)-2-oxo-1,2,3,4,5,6-hexahydroazepino[4,5-b]indol-10-yl)acetonitrile]
IC50 [1]: 1.74 µM
IC50 [2]: 0.0373 µM

N#CCc1cc(Cl)c(Cl)c2c1c1c3n2CCC3CNC(=O)C1 (centres unmarked) [Example 114, 2-(8,9-Dichloro-2-oxo-2,3,4,4a, 5,6-hexahydro-1H-azepino[3,4,5-gh]benzo[b]pyrrolizin-11-yl)acetonitrile]
IC50 [1]: 1.27 µM
IC50 [2]: 0.0384 µM

N#CCOc1cc(Cl)c(Cl)c2c1c1c3n2CCC3CNC(=O)C1 (centres unmarked) [Example 115, 2-((8,9-Dichloro-2-oxo-2,3,4,4a, 5,6-hexahydro-1H-azepino[3,4,5-gh]benzo[b]pyrrolizin-11-yl)oxy)acetonitrile]
IC50 [1]: 1.95 µM
IC50 [2]: 0.0224 µM

Cn1ncc(-c2cc(Cl)c(Cl)c3c2c2c4n3CCC4CNC(=O)C2)n1 (centres unmarked) [Example 116, 8,9-Dichloro-11-(2-methyl-2H-1,2,3-triazol-4-yl)-1,3,4,4a, 5,6-hexahydro-2H-azepino[3,4,5-gh]benzo[b]pyrrolizin-2-one]
IC50 [1]: 0.64 µM
IC50 [2]: 0.0148 µM

CN(C)C(=O)CC1CNC(=O)Cc2c1[nH]c1c(Cl)c(Cl)cc(CC#N)c21 (centres unmarked) [Example 117, 2-(7,8-Dichloro-10-(cyanomethyl)-2-oxo-1,2,3,4,5,6-hexahydroazepino[4,5-b]indol-5-yl)-N,N-dimethylacetamide]
IC50 [1]: 1.32 µM
IC50 [2]: 0.0186 µM

CN(C)CCC1CNC(=O)Cc2c1[nH]c1c(Cl)c(Cl)cc(-c3cnn(C)n3)c21 (centres unmarked) [Example 118, 7,8-Dichloro-5-(2-(dimethylamino)ethyl)-10-(2-methyl-2H-1,2,3-triazol-4-yl)-3,4,5,6-tetrahydroazepino[4,5-b]indol-2(1H)-one]
IC50 [1]: 0.577 µM
IC50 [2]: 0.0424 µM

CC(O)CC1CNC(=O)Cc2c1[nH]c1c(Cl)c(Cl)cc(-c3cnn(C)n3)c21 (centres unmarked) [Example 119, 7,8-Dichloro-5-(2-hydroxypropyl)-10-(2-methyl-2H-1,2,3-triazol-4-yl)-3,4,5,6-tetrahydroazepino[4,5-b]indol-2(1H)-one]
IC50 [1]: 0.487 µM
IC50 [2]: 0.0232 µM

CC(O)CC1CNC(=O)Cc2c1[nH]c1c(Cl)c(Cl)cc(CC#N)c21 (centres unmarked) [Example 120, 2-(7,8-Dichloro-5-(2-hydroxypropyl)-2-oxo-1,2,3,4,5,6-hexahydroazepino[4,5-b]indol-10-yl)acetonitrile]
IC50 [1]: 0.716 µM
IC50 [2]: 0.0119 µM

Cn1c2c(c3c(CC#N)cc(Cl)c(Cl)c31)CC(=O)NCC2CCO (centres unmarked) [Example 121, 2-(7,8-Dichloro-5-(2-hydroxyethyl)-6-methyl-2-oxo-1,2,3,4,5,6-hexahydroazepino[4,5-b]indol-10-yl)acetonitrile]
IC50 [1]: 0.18 µM
IC50 [2]: 0.0172 µM

Cn1c2c(c3c(OCC#N)cc(Cl)c(Cl)c31)CC(=O)NCC2CCO (centres unmarked) [Example 124, 2-((7,8-Dichloro-5-(2-hydroxyethyl)-6-methyl-2-oxo-1,2,3,4,5,6-hexahydroazepino[4,5-b]indol-10-yl)oxy)acetonitrile]
IC50 [1]: 0.468 µM
IC50 [2]: 0.0323 µM

Cn1ncc(-c2cc(Cl)c(Cl)c3c2c2c(n3C)C(CCO)CNC(=O)C2)n1 (centres unmarked) [Example 127, 7,8-Dichloro-5-(2-hydroxyethyl)-6-methyl-10-(2-methyl-2H-1,2,3-triazol-4-yl)-3,4,5,6-tetrahydroazepino[4,5-b]indol-2(1H)-one]
IC50 [1]: 1.21 µM
IC50 [2]: 0.0344 µM

CC1C(=O)NCC(C)(C)c2[nH]c3c(Cl)c(Cl)cc(NCCO)c3c21 (centres unmarked) [Example 131, 7,8-Dichloro-10-((2-hydroxyethyl)amino)-1,5,5-trimethyl-3,4,5,6-tetrahydroazepino[4,5-b]indol-2(1H)-one]
IC50 [1]: 2.72 µM
IC50 [2]: 0.0533 µM
